# Results as given in patent US6403619B1, “Method for controlling cell necrosis or apoptosis” (University of Kentucky Research Foundation, priority 1998, dated 2002).
# How the values were obtained:
# [1] = tested on: Malignant epithelial cells; experiment: Doubling of malignant epithelial cell populations under PARP (tankyrase) inhibition; type: cell-based; conditions: 0.1 M; after 10 weeks; compared with control grown without it; FIG. 20
# Description: Malignant epithelial cells were grown in the presence of 0.1 M benzamide, which is known to inhibit all PARPs. The doubling of the cell populations was observed over a period of time, and compared to a control, which was grown in the absence of benzamide.
# [2] = Local vasodilation following topical application of cream (assesses rate of hydrolysis to nicotinate); type: in vivo; conditions: for duration of vasodilation / onset of vasodilation: topical application of a cream containing 0.05%
# Source text: The next issue considered was the rate of hydrolysis of topically applied pro-NAD agents to nicotinic acid such that conversion to NAD can be completed by the pathway shown in FIG. 11. The rates of hydrolysis of a pro-NAD agent following topical application can be assessed by evaluation of local vasodilation following topical application of a pro-NAD agent. […] Experiments have compared the absence or presence of vasodilation (and the time course of vasodilation when present) for a number of the pro-NAD agents shown in FIG. 13. For example, application of a cream containing 0.05% hexylnicotinate results in vasodilation with onset at approximately 10 minutes and duration of approximately 90 minutes. A similar application of octylnicotinate results in an onset of vasodilation at approximately 15 minutes with duration of 360 minutes. […] These experiments indicate that tetradecylnicotinate is released very slowly following application. Two factors are likely involved in the rate of hydrolysis of topically applied pro-NAD agents, the rate of departure from the stratum corneum and the rate of hydrolysis by esterases present in the epidermal and dermal layers of the skin.
# [3] = tested on: p53; conditions: high levels of the agent; in the absence of and following genotoxic stress; FIG. 12B
# Description: Briefly, cells were grown in control or suboptimal niacin media as described in Example 1 above, resulting in cells with normal or low NAD content. The protein of the cells was then extracted and portions of the extract were separated by SDS-polyacrylamide gel electrophoresis (SDS-PAGE) and p53 protein content was determined by immunoblotting (western blotting). […] FIG. 9B compares the relative content of p53 following genotoxic stress caused by the alkylating agent MNNG in cells with a low or normal NAD content.
# [4] = tested on: human skin fibroblasts; experiment: Bioconversion of pro-NAD agents to NAD by skin fibroblasts in culture; type: cell-based; conditions: FIG. 11
# Description: A series of experiments were performed to determine the possible classes of pro-NAD agents that may be used for the elevation of skin cell NAD content by topical application. Any compound that can be converted to NAD is referred to here as a “pro-NAD” agent.
# [5] = tested on: Epithelial cells; experiment: Necrosis and apoptosis of epithelial cells under MNNG genotoxic stress; type: cell-based
# Description: Epithelial cells were subjected to genotoxic stress with the alkylating agent N-methyl-N^1-nitro-N-nitrosoguanidine, or “MNNG” as referred to supra and hereafter. Epithelial cells were cultured in the presence of either no MNNG, 10 μg/mL MNNG, or 20 μg/mL of MNNG, in medium containing either 0, 50 μM or 500 μM nicotinamide. Percent necrosis and apoptosis was studied over time, i.e., for 48 hours. […] Nicotinamide is converted to NAD, but as indicated, none was added in the experiments depicted in 17A and 17D.
# [6] = tested on: cells; experiment: Survival under oxidative genotoxic stress caused by staurosporin; type: cell-based; conditions: 50 μM in medium compared with none; different concentrations of staurosporin; FIG. 19
# Description: These experiments describe studies on oxidative genotoxic stress, caused by staurosporin. Cells were contacted with different concentrations of staurosporin, and were cultured in medium that either contained no nicotinamide or 50 μM nicotinamide.
# [7] = tested on: cells; experiment: DNA integrity following genotoxic stress induced by MNNG; type: cell-based; conditions: high levels (500 micromolar) compared with normal levels (50 micromolar), FIG. 12A
# Description: The DNA repair proficiency as a function of NAD content has been assessed also by a technique called a “comet assay.” In a comet assay (O. Ostling and K. J. Johanson, Biochem. Biophys. Res. Commun. 123: 291 (1984); P. L. Olive and J. P. Banath, Exp. Cell Res. 221: 19 (1995)), cells are plated out after embedding into liquid agarose on a carrier and lysed in situ after formation of an agarose gel. The DNA of the individual cells is then separated in situ in an electric field. Damaged DNA containing strand breaks migrates away from the cell nucleus due to its smaller size and this migration results in an image where the nucleus appears as the head of the comet and the broken DNA appears as tail of the comet. The more degraded the genomic DNA is, the greater the amount of migration-capable DNA and the longer the “comet tail.”
# [8] = Octanol/water partition coefficient; type: physicochemical; conditions: extrapolated from Po/w values of the shorter esters; FIG. 14
# Source text: The first issue considered was the physical-chemical properties of the pro-NAD agents most desirable for topical application. The nicotinic acid molecule may not be optimal because it may be too polar to be effectively delivered to skin cells topically. Molecules that are too polar may not effectively partition into the apolar stratum corneum layer of skin and following passage across the stratum corneum, it would be expected to rapidly enter the systemic circulation. To evaluate the potential of these pro-NAD agents to partition into the stratum corneum, the octanol/water partition coefficients for the methyl, eythl-, butyl-, hexyl-, and octyl-esters of nicotinate were experimentally determined.
# The octanol/water partition coefficient was determined by dissolving a known amount of pro-NAD agent in water and then mixing the aqueous compound with a known volume of octanol. After mixing for a period of 1 to 18 hours, aliquots of the water phase were analyzed by HPLC for the amount of remaining pro-NAD agent. The partition coefficient (P) was calculated from the following equation:
# log Po/w=log10((Co−C)CVo))
# where Co is the initial concentration in water and C is the concentration after partitioning. Vw and Vo represent the volume of water and octanol phases respectively.
# [9] = tested on: NAD content of skin; experiment: Skin NAD content after topical application, hairless mouse model; type: in vivo
# Description: (§1) Based on evaluation of pro-NAD agents, proof of principle experiments for elevation of skin cell NAD content by topical delivery were performed using a hairless mouse model. In brief, tetradecylnicotinate was used for the initial studies. In the study three daily topical applications of 1% tetradecylnicotinate cream to the back of the animals and no cream were applied to the abdomen. Immediately following the third application, the skin from the back and abdomen were analyzed for NAD content. Test samples of skin were frozen in liquid nitrogen and powdered by mechanical means. NAD content was assessed as described previously (Jacobson, E L, and Jacobson, M K Meth Enzymol 280, 221-230, 1997; Jacobson, E L et al., J Cell Physiol 99, 417-426, 1979). The NAD assay is based on the principle of enzymic cycling between oxidized and reduced states, in which NAD is rate-limiting for a series of amplification reactions. Total protein was assayed by the Bradford assay.
# (§2) In another experiment, the effect of the number of daily application of 1% tetradecylnicotinate cream was examined. Again, application was made to the back of the animal and the abdomen of each animal served as control.
# [10] = Signs of toxicity after topical application, hairless mouse model; type: in vivo; conditions: topical 1% cream, experiments of FIGS. 15 and 16
# Description: as §1, §2
# [11] = varying number of daily applications of 1% cream to the back, FIG. 16
smiles,measurement,setting,value
NC(=O)c1ccccc1 [benzamide],doubling of the cell populations,[1],stopped doubling
CCCCCCOC(=O)c1cccnc1 [hexylnicotinate],duration of vasodilation,[2],approximately 90 minutes
same,onset of vasodilation,[2],approximately 10 minutes
NC(=O)c1cccnc1 [nicotinamide],p53 levels / p53-signaling response,[3],abnormally high levels of p53
same,bioconversion to NAD,[4],can be bioconverted to NAD
same,"response (necrosis, apoptosis) to MNNG induced genotoxic shock","[5]; 500 μM in medium, MNNG 10 or 20 μg/mL, 48 hours, FIGS. 17C and 17F",Normal responses were not established
same,involvement in cell death pathways (cellular morphology over time),"[5]; none, 50 μM or 500 μM in medium, FIGS. 18A-18D",involved in cellular necrosis pathways much more than in apoptosis pathways
same,rate of cell death (percentage survival),[6],rate of cell death is decreased significantly
same,DNA integrity,[7],decreased DNA integrity
O=C(O)c1cccnc1 [nicotinic acid],bioconversion to NAD,[4],can be bioconverted to NAD
CCCCCCCCCCCCCCCCCCOC(=O)c1cccnc1 [octadecylnicotinate],properties for partitioning into the stratum corneum (Po/w predicted by extrapolation),[8],favorable properties for partitioning into the stratum corneum
CCCCCCCCOC(=O)c1cccnc1 [octylnicotinate],duration of vasodilation,[2],360 min
same,onset of vasodilation,[2],approximately 15 minutes
CCCCCCCCCCCCCCOC(=O)c1cccnc1 [tetradecylnicotinate],properties for partitioning into the stratum corneum (Po/w predicted by extrapolation),[8],favorable properties for partitioning into the stratum corneum
same,vasodilation,[2]; similar topical application of cream (0.05%),does not result in vasodilation
same,NAD content of skin removed from the abdomen (no cream applied),"[9]; three daily applications of 1% cream to the back, FIG. 15",not increased
same,skin NAD content relative to control animal treated with base cream only,"[9]; three daily topical applications of 1% cream to the back, back skin, FIG. 15",143%
same,NAD content of skin removed from the back,[9]; [11],increased as a function of the number of daily applications
same,NAD content of the abdomen (control site),[9]; [11],did not increase
same,signs of toxicity,[10],in no case were any signs of toxicity observed
